Here are results for 12 compounds from PubChem BioAssay (NCI).

SMILES strings stand for the structures.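 Following 48 hours of exposure in 96-well plates, responses at five concentrations were used to interpolate endpoints linearly. GI50 marks 50% less growth. At the TGI there is no net growth.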

Some test systems named below: COLO 205 colon; NCI-H226 lung; HCT-15 colon; IGROV1 ovarian; HOP-62 NSCLC; SNB-19 CNS; A498 renal; SW-620 colon; NCI-H522 lung; T-47D breast.
Holding throughout (assay): NCI-60 cell line screen, 48 h

For `OCCN1CCN(CCO)Cc2ccccc2OCCOc2ccccc2C1`, the TGI in the test on COLO 205 colon, with NCI-H226 lung, in the test on HCT-15 colon, in the test with IGROV1 ovarian, in the test on HOP-62 NSCLC and in the test with SNB-19 CNS was greater than 100 µM throughout. Besides, the TGI with A498 renal, in the test with SW-620 colon and with NCI-H522 lung was greater than 100 µM throughout.
As for `O=C(O)C(=O)Cc1ccc2c(c1)OCO2`, the TGI with COLO 205 colon, in the test on NCI-H226 lung, in the test with T-47D breast, in the test with HCT-15 colon, with IGROV1 ovarian and in the test with HOP-62 NSCLC was greater than 100 µM throughout. Also, the TGI in the test on SNB-19 CNS, with A498 renal and with SW-620 colon was greater than 100 µM throughout.
`COc1ccc(OC)c(/C=C/c2nnc(Nc3ccc(Cl)cc3)o2)c1`: the GI50 was 16.6 µM in the test on COLO 205 colon; 2.54 µM with T-47D breast; 34.1 µM in the test with HCT-15 colon; 7.69 µM with IGROV1 ovarian; 2.71 µM in the test with HOP-62 NSCLC; 13.8 µM with SNB-19 CNS. Further, the values for the GI50 in the test on A498 renal, in the test on SW-620 colon and in the test with NCI-H522 lung were 1.87 µM, 18.3 µM and 7.13 µM, respectively. Moreover, the TGI in the test on COLO 205 colon was greater than 100 µM; in the test on T-47D breast it was greater than 100 µM; in the test with HCT-15 colon, greater than 100 µM; in the test on IGROV1 ovarian, greater than 100 µM; in the test on HOP-62 NSCLC, 7.68 µM; in the test with SNB-19 CNS it was greater than 100 µM. In addition, the TGI in the test on A498 renal was 7.76 µM; in the test with SW-620 colon it was greater than 100 µM; in the test on NCI-H522 lung it was 83.7 µM.
As to `COc1cc2c(c(OC)c1OC)-c1ccc([O-])c(=O)cc1[C@@H](NC(C)=O)CC2.COc1cc2c(c(OC)c1OC)-c1ccc([O-])c(=O)cc1[C@@H](NC(C)=O)CC2.[Cu+2]`, the GI50 was 2.82 µM in the test with COLO 205 colon; 5.13 µM in the test with NCI-H226 lung; 7.95 µM in the test with T-47D breast; 3.73 µM with HCT-15 colon; 5.59 µM in the test on IGROV1 ovarian; 5.67 µM in the test with HOP-62 NSCLC. Moreover, the GI50 with SNB-19 CNS was 14.7 µM; with A498 renal, 2.41 µM; in the test on SW-620 colon, 3.44 µM. Moreover, the TGI in the test with COLO 205 colon was 9.19 µM; with NCI-H226 lung, greater than 100 µM; in the test with T-47D breast, greater than 100 µM; in the test on HCT-15 colon, greater than 100 µM; in the test on IGROV1 ovarian, 47.1 µM; with HOP-62 NSCLC, greater than 100 µM. The TGI was greater than 100 µM in the test on SNB-19 CNS, 8.53 µM in the test on A498 renal and greater than 100 µM in the test on SW-620 colon.
With `CC1(C)CC23C(=O)N(c4ccccc4)C(=Nc4ccccc4)NC2=CC(C#N)=C(C#N)C3O1` (centres undefined), the TGI in the test on COLO 205 colon is greater than 100 µM; with NCI-H226 lung, 88.8 µM; in the test with HCT-15 colon it was greater than 100 µM; with IGROV1 ovarian, greater than 100 µM; in the test on HOP-62 NSCLC, greater than 100 µM; with SNB-19 CNS, greater than 100 µM. Moreover, the TGI in the test on A498 renal, with SW-620 colon and in the test on NCI-H522 lung was greater than 100 µM each time.
Consider `C=C1C(=O)O[C@@H]2[C@H]1CC[C@H](C)[C@]1(O)CCC(=O)[C@@]21C`, for which the TGI in the test with COLO 205 colon, in the test on NCI-H226 lung, in the test with T-47D breast, in the test on HCT-15 colon, in the test on IGROV1 ovarian and with HOP-62 NSCLC was greater than 10 µM in each case. Also, the TGI in the test with SNB-19 CNS and with SW-620 colon was greater than 10 µM throughout.
In the case of `Cc1cc(C)c(C(=O)O)c(N)c1O`, the TGI in the test on COLO 205 colon, in the test with NCI-H226 lung, with HCT-15 colon, in the test on IGROV1 ovarian, in the test on HOP-62 NSCLC and in the test with SNB-19 CNS was greater than 100 µM each time. The TGI in the test with A498 renal, in the test with SW-620 colon and with NCI-H522 lung was greater than 100 µM throughout.
Consider `CCCCCCCCN(CCCCCCCC)C(=N)c1ccnc2ccccc12`, for which the GI50 in the test on COLO 205 colon is 0.2 µM; with T-47D breast, 1.24 µM; with HCT-15 colon it was 0.348 µM; in the test with HOP-62 NSCLC, 1.42 µM; in the test with SNB-19 CNS, 1.55 µM; with A498 renal, 1.41 µM. Further, the GI50 with NCI-H522 lung is 1.48 µM. Further, the TGI came out at 0.445 µM with COLO 205 colon; 2.93 µM in the test on T-47D breast; 1.33 µM in the test with HCT-15 colon; 2.88 µM in the test on HOP-62 NSCLC; 3.17 µM in the test with SNB-19 CNS; 2.85 µM with A498 renal. In the test with NCI-H522 lung, this compound registered a TGI of 2.92 µM.
For `Cc1cc(N(CCC#N)CCC#N)ccc1/C=C1/CN(N2C(=O)/C(=C/c3ccc(N(CCC#N)CCC#N)cc3C)N=C2c2ccccc2)C(c2ccccc2)=N1`, the TGI in the test on COLO 205 colon, in the test on NCI-H226 lung, in the test with HCT-15 colon, in the test with IGROV1 ovarian, in the test on HOP-62 NSCLC and in the test with SNB-19 CNS was greater than 100 µM in each case. The TGI with A498 renal, with SW-620 colon and with NCI-H522 lung was greater than 100 µM in each case.
Take `O=c1c(O)c(-c2ccc(O)c(O)c2)oc2cc(O)ccc12`: the TGI in the test on COLO 205 colon was greater than 100 µM; with NCI-H226 lung it was 39.5 µM; with HCT-15 colon, 98.4 µM; in the test with IGROV1 ovarian it was greater than 62.8 µM; in the test with HOP-62 NSCLC, greater than 100 µM; in the test on SNB-19 CNS, greater than 100 µM. Further, the TGI with A498 renal was 62.3 µM; in the test on SW-620 colon it was 60.1 µM; in the test with NCI-H522 lung, 45.3 µM.
For `CC(C)C1C(=O)N2CCCC2C2(O)OC(NC(=O)C3C=C4c5cccc6[nH]cc(c56)CC4N(C)C3)(C(C)C)C(=O)N12` (centres undefined), the TGI with COLO 205 colon was 51.5 µM; with T-47D breast, greater than 100 µM; with HCT-15 colon it was 54.9 µM; in the test on IGROV1 ovarian, 36.5 µM; in the test with HOP-62 NSCLC, greater than 100 µM; in the test with SNB-19 CNS, greater than 100 µM. The TGI is greater than 100 µM in the test on SW-620 colon and 74.5 µM with NCI-H522 lung.
On to `Nn1c(CCCl)nc2c(Br)cc(Br)cc2c1=O`, for which the TGI in the test with COLO 205 colon was 54.1 µM; in the test on NCI-H226 lung, greater than 75.1 µM; with HCT-15 colon, 55.1 µM; in the test with IGROV1 ovarian, 60.3 µM; in the test on HOP-62 NSCLC it was 71.8 µM; in the test with SNB-19 CNS it was greater than 100 µM. The TGI with A498 renal was greater than 56.9 µM; in the test on SW-620 colon it was greater than 55 µM; with NCI-H522 lung it was 38.5 µM.
